Measurements: patent publication US11337971B2, “Dopamine D3 receptor selective antagonists/partial agonists and uses thereof” (THE UNITED STATES OF AMERICA, AS REPRESENTED BY THE …, priority 2018, dated 2022)
Entries after “also recorded” stand apart in the source; their conditions may differ. Where two headings read alike, the source gives them in different places.

Tests used:
human D2R = human D2R (Homo sapiens (Human), UniProt P14416); assay: Radioligand competition binding, [3H]N-methylspiperone, HEK293 membranes expressing human D2R; conditions: read-out: D2R Ki ± SEM
human D2R, sequence (P14416 whole entry): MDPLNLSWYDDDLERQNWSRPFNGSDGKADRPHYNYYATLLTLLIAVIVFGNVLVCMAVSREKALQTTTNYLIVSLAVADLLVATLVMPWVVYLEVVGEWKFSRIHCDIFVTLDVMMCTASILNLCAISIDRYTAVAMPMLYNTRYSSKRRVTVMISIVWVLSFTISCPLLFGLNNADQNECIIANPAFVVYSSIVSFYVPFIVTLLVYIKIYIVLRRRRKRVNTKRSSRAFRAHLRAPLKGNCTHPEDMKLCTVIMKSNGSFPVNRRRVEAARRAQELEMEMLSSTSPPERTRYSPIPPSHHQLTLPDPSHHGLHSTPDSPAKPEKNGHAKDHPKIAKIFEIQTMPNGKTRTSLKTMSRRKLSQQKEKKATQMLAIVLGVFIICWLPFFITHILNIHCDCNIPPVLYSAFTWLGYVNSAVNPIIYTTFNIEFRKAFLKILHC
How it was run: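 HEK293 membranes (10 μg protein) incubated 1 h at room temperature in EBSS with 0.2 mM sodium metabisulfite, 0.4 nM [3H]N-methylspiperone and compound (10 μM to 10 pM, triplicate). Nonspecific binding defined with 10 μM butaclamol; GF/B filtration.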

Male Long-Evans rats [1] = assay: Oxycodone-triggered reinstatement of drug-seeking behavior; format: in vivo, rat; conditions: 5-15 mg/kg, i.p., oxycodone priming 1 mg/kg
Description: For the three groups from Experiment 2, extinction sessions continued without drug treatment until the rats' average active lever-presses/session decreased to less than 10 responses over 3 consecutive sessions. On the following day, 2 groups of rats were first pretreated with 1 of 2 doses of compound (±)-29 (5 or 15 mg/kg) while another group with vehicle. Fifteen min following pretreatment, all the animals received a non-contingent injection of oxycodone priming (1 mg/kg, i.p.) and then were placed into the same operant chambers for another extinction session.

Male Long-Evans rats [2] = assay: Naloxone-precipitated conditioned place aversion (CPA) in chronic oxycodone-treated rats; format: in vivo, rat; conditions: 5 or 15 mg/kg, i.p., 1 h before naloxone conditioning
Description: Naloxone-precipitated CPA was tested in a place-conditioning apparatus (Med Associates, St Albans, Vt.) consisting of two side compartments (21 cm×28 cm) and a central gray connecting area (21 cm×12.5 cm); a sliding door separated each compartment from the connecting area. The two side compartments differed in wall color (black vs white), floor type (stainless steel net vs stainless steel grid), and illumination. Before the experiment started, all the animals were allowed to explore the conditioning apparatus for 15 min (preconditioning).
Six groups (n=8/group) of rats were involved in this test, 3 groups were chronically treated with oxycodone (3 mg/kg, i.p.) and the other 3 with saline (1 ml/kg), twice daily (800 and 1800 h). Four hours following the morning injection on Day 4 and 6, the oxycodone treated rats were challenged with saline and immediately confined in one side compartment of the conditioning box for 30 min, while on Day 5 and 7, they were first pretreated with either vehicle or 1 of 2 doses of compound (±)-29 (5 and 15 mg/kg, i.p.) 3 h after morning oxycodone injection, and 1 h later, challenged with naloxone (1 mg/kg, i.p.). […] The time that animals spent in each compartment was recorded. The CPA score was calculated as the time difference (seconds) that animal spent in drug-paired versus saline-paired compartment.

rhesus monkeys = assay: Thermal tail withdrawal model of oxycodone antinociception in rhesus monkeys; format: in vivo, rhesus monkey; conditions: 10 mg/kg, i.m.

CCc1cc(Cl)c(OC)c(N2CCN(CC(O)CCNC(=O)c3cc4ccccc4[nH]3)CC2)c1 (racemic) [Compound 29, N-(4-(4-(3-chloro-5-ethyl-2-methoxyphenyl)piperazin-1-yl)-3-hydroxybutyl)-1H-indole-2-carboxamide]
Ki (human D2R; Table 1B, [3H]-N-methylspiperone competition, D2LR, 96-well plates): 11.4 ± 3.27 µM
Ki (human D2R; Table 1C): 13.2 ± 3.77 µM
oxycodone-primed reinstatement of active lever-presses (Male Long-Evans rats [1]): dose-dependently blocked; also recorded: dose dependently reduced reinstatement to oxycodone seeking
naloxone-precipitated CPA in chronically oxycodone-treated rats (Male Long-Evans rats [2]): dose-dependently attenuated the CPA induced by naloxone; also recorded: significantly blocked CPA induced by naloxone-precipitated withdrawal; also recorded: inhibition of naloxone-precipitated conditioned place aversion
antinociception at submaximal dose of 0.1 mg/kg oxycodone (rhesus monkeys): potentiated antinociception; also recorded: potentiates the analgesic effects
oxycodone antinociception at the highest and lowest doses of oxycodone (rhesus monkeys): no effect on oxycodone antinociception
